Experimental data: US20230357249A1, “ANDROGEN RECEPTOR PROTEIN DEGRADERS WITH A TRICYCLIC CEREBLON LIGAND” (THE REGENTS OF THE UNIVERSITY OF MICHIGAN, priority 2020, published 2023)

How the values were obtained:
[1] = test system: AR protein; assay: AR protein degradation in MDA-MB-453 cells, Western blotting; format: cell-based; set-up: key to AR protein degradation MDA-MB-453 10 nM: A: >90% degradation (24 hr treatment); B: >50% degradation but <90% (24 hr treatment); C: >10% degradation but <50% (24 hr treatment); D: No significant degradation (24 hr treatment); settings: 24 hr treatment
Procedure: (§1) The appropriate cell line, e.g., prostate cancer LNCaP, Vcap, or 22RV1 cell line, was treated with Compounds of the Disclosure as indicated. The treated cells were lysed with RIPA buffer. The AR level in the cell lysates was examined by western blotting and a specific AR antibody (ab194196, Abcam, Cambridge, MA 02139) with concentration of 1:20,000. GAPDH was used as a loading control.
(§2) Bands were quantified with ImageJ software. The relative numbers of each band obtained from normalization with its corresponding GAPDH level were compared with Prism 8 software. The DC50 values were produced from Prism 8, and the DC90 values were calculated with an equation=Bottom + (Top-Bottom)/(1+10^((LogEC50-X)*HillSlope) based on DC50 and Hillslope values.
(§3) The amount of AR protein degradation in VCap and MDA-MB-453 cells caused by representative Compounds of the Disclosure at the concentrations indicated is presented in Table 4, FIG. 1, and FIG. 2.

[2] = biological target: T1, AR protein (Homo sapiens, UniProt P10275); assay: AR protein degradation in VCaP cells, Western blotting; format: cell-based; settings: 24 hr treatment; for percent AR protein degradation at 0.01 µM: 10 nM; for percent AR protein degradation at 0.1 µM: 100 nM
T1 construct: endogenous in cells; host or cells: VCaP
T1 sequence (P10275 1-920): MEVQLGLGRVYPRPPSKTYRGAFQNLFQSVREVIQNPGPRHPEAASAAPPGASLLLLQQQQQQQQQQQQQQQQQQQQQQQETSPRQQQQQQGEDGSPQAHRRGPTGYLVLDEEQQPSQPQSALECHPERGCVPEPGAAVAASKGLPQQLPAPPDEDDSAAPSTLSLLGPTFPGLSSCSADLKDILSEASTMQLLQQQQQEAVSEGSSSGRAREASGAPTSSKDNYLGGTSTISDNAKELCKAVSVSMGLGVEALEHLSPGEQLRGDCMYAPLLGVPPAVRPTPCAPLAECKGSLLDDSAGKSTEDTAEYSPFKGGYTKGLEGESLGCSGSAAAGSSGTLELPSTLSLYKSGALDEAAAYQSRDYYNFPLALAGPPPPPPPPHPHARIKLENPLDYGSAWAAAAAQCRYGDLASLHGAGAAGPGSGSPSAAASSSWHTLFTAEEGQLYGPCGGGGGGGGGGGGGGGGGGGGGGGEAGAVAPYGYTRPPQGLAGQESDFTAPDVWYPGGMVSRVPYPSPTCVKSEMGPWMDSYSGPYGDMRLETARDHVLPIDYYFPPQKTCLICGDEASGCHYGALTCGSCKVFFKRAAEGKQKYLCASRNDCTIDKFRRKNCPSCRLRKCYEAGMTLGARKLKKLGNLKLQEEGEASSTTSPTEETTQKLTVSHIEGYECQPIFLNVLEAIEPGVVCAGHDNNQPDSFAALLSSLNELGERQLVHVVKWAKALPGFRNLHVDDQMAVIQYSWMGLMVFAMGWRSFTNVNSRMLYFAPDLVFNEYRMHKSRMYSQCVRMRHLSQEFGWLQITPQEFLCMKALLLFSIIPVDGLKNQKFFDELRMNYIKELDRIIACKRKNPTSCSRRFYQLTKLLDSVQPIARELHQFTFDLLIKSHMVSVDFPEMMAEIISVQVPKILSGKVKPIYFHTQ
Procedure: as §1, §2, §3

Row | SMILES | AR protein degradation MDA-MB-453 10 nM [1] | AR protein degradation MDA-MB-453 100 nM [1] | percent AR protein degradation at 0.01 µM [2] [%] | percent AR protein degradation at 0.1 µM [2] [%]
1 | N#Cc1ccc(O[C@H]2CC[C@H](N3Cc4cc(N5CCN(CC(=O)N6CCc7cc8c(cc7C6)C(=O)N(C6CCC(=O)NC6=O)C8=O)CC5)ccc4C3=O)CC2)cc1Cl (some centres unmarked) [compound 3] | D | C (>10% degradation but <50% (24 hr treatment)) | – | –
2 | CC1(C)[C@H](Oc2ccc(C#N)c(Cl)c2)C(C)(C)[C@H]1N1Cc2cc(N3CCN(CC(=O)N4CCc5cc6c(cc5C4)C(=O)N(C4CCC(=O)NC4=O)C6=O)CC3)ccc2C1=O (some centres unmarked) [compound 1] | D | C (>10% degradation but <50% (24 hr treatment)) | – | –
3 | N#Cc1ccc(O[C@H]2CC[C@H](N3Cc4cc(N5CCN(CC(=O)N6Cc7cc8c(cc7C6)C(=O)N(C6CCC(=O)NC6=O)C8=O)CC5)ccc4C3=O)CC2)cc1Cl (some centres unmarked) [compound 4] | B (>50% degradation but <90% (24 hr treatment)) | A (>90% degradation (24 hr treatment)) | – | –
4 | CC1(C)[C@H](Oc2ccc(C#N)c(Cl)c2)C(C)(C)[C@H]1N1Cc2cc(N3CCN(CC(=O)N4Cc5cc6c(cc5C4)C(=O)N(C4CCC(=O)NC4=O)C6=O)CC3)ccc2C1=O (some centres unmarked) [compound 2] | D | C (>10% degradation but <50% (24 hr treatment)) | – | –
5 | CC1(C)[C@H](Oc2ccc(C#N)c(Cl)c2)C(C)(C)[C@H]1N1Cc2cc(C(=O)N3CCC(N4Cc5cc6c(cc5C4)C(=O)N(C4CCC(=O)NC4=O)C6=O)CC3)ccc2C1=O (some centres unmarked) [compound 5] | – | – | 10 to 50 | 10 to 50
6 | CN(c1ccc(C#N)c(Cl)c1)[C@H]1CC[C@H](NC(=O)c2ccc(N3CCC(CN4Cc5cc6c(cc5C4)C(=O)N(C4CCC(=O)NC4=O)C6=O)CC3)nc2)CC1 (some centres unmarked) [compound 323] | – | – | > 90 | > 90
7 | CN(c1ccc(C#N)c(Cl)c1)[C@H]1CC[C@H](NC(=O)c2ccc(CN3CCC(C(=O)N4Cc5cc6c(cc5C4)C(=O)N(C4CCC(=O)NC4=O)C6)CC3)cc2)CC1 (some centres unmarked) [compound 326] | – | – | > 90 | > 90
